# Legend:
# Type in all cases: functional
# Conditions in all cases: time 18-20 hrs
# Pseudomonas aeruginosa [1] = assay: Antibacterial activity against Pseudomonas aeruginosa 19-5 assessed as inhibition of bacterial growth measured after 18 to 20 hrs by broth microdilution method
# Klebsiella pneumoniae [2] = assay: Antibacterial activity against Klebsiella pneumoniae 15-5 assessed as inhibition of bacterial growth measured after 18 to 20 hrs by broth microdilution method
# Escherichia coli [3] = assay: Antibacterial activity against Escherichia coli 14-2 assessed as inhibition of bacterial growth measured after 18 to 20 hrs by broth microdilution method
# Klebsiella pneumoniae [4] = assay: Antibacterial activity against Klebsiella pneumoniae 15-4 assessed as inhibition of bacterial growth measured after 18 to 20 hrs by broth microdilution method
# Klebsiella pneumoniae [5] = assay: Antibacterial activity against Klebsiella pneumoniae 15-1 assessed as inhibition of bacterial growth measured after 18 to 20 hrs by broth microdilution method
# Escherichia coli [6] = assay: Antibacterial activity against Escherichia coli ATCC 35218 assessed as inhibition of bacterial growth measured after 18 to 20 hrs by broth microdilution method
# Acinetobacter baumannii [7] = assay: Antibacterial activity against Acinetobacter baumannii 17-2 assessed as inhibition of bacterial growth measured after 18 to 20 hrs by broth microdilution method
# Pseudomonas aeruginosa [8] = assay: Antibacterial activity against Pseudomonas aeruginosa 17-1 assessed as inhibition of bacterial growth measured after 18 to 20 hrs by broth microdilution method
# Acinetobacter baumannii [9] = assay: Antibacterial activity against Acinetobacter baumannii 17-8 assessed as inhibition of bacterial growth measured after 18 to 20 hrs by broth microdilution method
# Escherichia coli [10] = assay: Antibacterial activity against Escherichia coli 14-4 assessed as inhibition of bacterial growth measured after 18 to 20 hrs by broth microdilution method
MIC (Pseudomonas aeruginosa [1]) [µg/mL],MIC (Klebsiella pneumoniae [2]) [µg/mL],MIC (Escherichia coli [3]) [µg/mL],MIC (Klebsiella pneumoniae [4]) [µg/mL],MIC (Klebsiella pneumoniae [5]) [µg/mL],MIC (Escherichia coli [6]) [µg/mL],MIC (Acinetobacter baumannii [7]) [µg/mL],MIC (Pseudomonas aeruginosa [8]) [µg/mL],MIC (Acinetobacter baumannii [9]) [µg/mL],MIC (Escherichia coli [10]) [µg/mL],SMILES
16,0.06,0.125,0.125,0.06,≤ 0.03,2,16,1,0.06,Cc1nc(-c2ccc(SC(C)(C)C)cc2)ncc1C(=O)N[C@@H](CCN)C(=O)N(C)[C@@H]1C(=O)N[C@@H](C)C(=O)N[C@H](C(=O)NCC#N)Cc2ccc(OCCN)c(c2)-c2cc1ccc2OCCN.O=C(O)C(F)(F)F.O=C(O)C(F)(F)F.O=C(O)C(F)(F)F.O=C(O)C(F)(F)F
6,0.25,0.25,0.5,0.125,≤ 0.03,1,8,1,0.125,Cc1cc(-c2ccc(CSSC(C)(C)C)cc2)ncc1C(=O)N[C@@H](CCN)C(=O)N(C)[C@@H]1C(=O)N[C@@H](C)C(=O)N[C@H](C(=O)NCC#N)Cc2ccc(OCCN)c(c2)-c2cc1ccc2OCCN.O=C(O)C(F)(F)F.O=C(O)C(F)(F)F.O=C(O)C(F)(F)F.O=C(O)C(F)(F)F
8,0.125,0.125,0.125,0.06,≤ 0.03,2,8,1,0.06,CCSSc1ccc(-c2ncc(C(=O)N[C@@H](CCN)C(=O)N(C)[C@@H]3C(=O)N[C@@H](C)C(=O)N[C@H](C(=O)NCC#N)Cc4ccc(OCCN)c(c4)-c4cc3ccc4OCCN)c(C)n2)cc1.O=C(O)C(F)(F)F.O=C(O)C(F)(F)F.O=C(O)C(F)(F)F.O=C(O)C(F)(F)F
> 64,16,16,32,16,4,32,> 64,8,8,Cc1nc(-c2ccc(C(C)(C)C)cc2)ncc1NC(=O)N[C@@H](CCN)C(=O)N(C)[C@@H]1C(=O)N[C@@H](C)C(=O)N[C@H](C(=O)NCC#N)Cc2ccc(OCCN)c(c2)-c2cc1ccc2OCCN.O=C(O)C(F)(F)F.O=C(O)C(F)(F)F.O=C(O)C(F)(F)F.O=C(O)C(F)(F)F
4,0.125,0.06,0.25,0.25,≤ 0.03,0.5,2,0.25,0.125,CCCCSSc1ccc(-c2ncc(C(=O)N[C@@H](CCN)C(=O)N(C)[C@@H]3C(=O)N[C@@H](C)C(=O)N[C@H](C(=O)NCC#N)Cc4ccc(OCCN)c(c4)-c4cc3ccc4OCCN)c(C)n2)cc1.O=C(O)C(F)(F)F.O=C(O)C(F)(F)F.O=C(O)C(F)(F)F.O=C(O)C(F)(F)F

# Further lines, the compound ahead of its results:
SMILES,MIC (Pseudomonas aeruginosa [1]) [µg/mL],MIC (Klebsiella pneumoniae [2]) [µg/mL],MIC (Escherichia coli [3]) [µg/mL],MIC (Klebsiella pneumoniae [4]) [µg/mL],MIC (Klebsiella pneumoniae [5]) [µg/mL],MIC (Escherichia coli [6]) [µg/mL],MIC (Acinetobacter baumannii [7]) [µg/mL],MIC (Pseudomonas aeruginosa [8]) [µg/mL],MIC (Acinetobacter baumannii [9]) [µg/mL],MIC (Escherichia coli [10]) [µg/mL]
Cc1nc(-c2ccc(C(C)(C)C)cc2)ncc1C(=O)N[C@@H](CCN)C(=O)N(C)[C@@H]1C(=O)N[C@@H](C)C(=O)N[C@H](C(=O)NN(C)CC#N)Cc2ccc(OCCN)c(c2)-c2cc1ccc2OCCN.Cl.Cl.Cl.Cl,> 64,16,16,16,8,4,> 64,> 64,64,4
Cc1nc(-c2ccc(C(C)(C)C)cc2)ncc1CN[C@@H](CCN)C(=O)N(C)[C@@H]1C(=O)N[C@@H](C)C(=O)N[C@H](C(=O)NCC#N)Cc2ccc(OCCN)c(c2)-c2cc1ccc2OCCN.O=C(O)C(F)(F)F.O=C(O)C(F)(F)F.O=C(O)C(F)(F)F.O=C(O)C(F)(F)F,> 64,16,4,32,16,0.5,8,64,2,2
Cc1nc(-c2ccc(C3SCCS3)cc2)ncc1C(=O)N[C@@H](CCN)C(=O)N(C)[C@@H]1C(=O)N[C@@H](C)C(=O)N[C@H](C(=O)NCC#N)Cc2ccc(OCCN)c(c2)-c2cc1ccc2OCCN.O=C(O)C(F)(F)F.O=C(O)C(F)(F)F.O=C(O)C(F)(F)F.O=C(O)C(F)(F)F,64,0.25,0.125,1,0.25,0.06,8,32,2,0.125
Cc1nc(-c2ccc(C(C)(C)C)cc2)ncc1C(=O)N[C@@H](CCN)C(=O)N(C)[C@@H]1C(=O)N[C@@H](C)C(=O)N[C@H](C(=O)O)Cc2ccc(OCCN)c(c2)-c2cc1ccc2OCCN.O=C(O)C(F)(F)F.O=C(O)C(F)(F)F.O=C(O)C(F)(F)F.O=C(O)C(F)(F)F,> 64,0.125,0.125,0.25,0.06,0.06,8,> 64,1,0.5
